Where no end group is shown, it is not given here.
Tests used:
[1] = tested on: lymphocytes T; experiment: T-lymphocyte proliferation test induced by influenza virus A/Bangkok, fresh cells (tritiated thymidine incorporation); type: cell-based, humain; conditions: result in words
[2] = tested on: lymphocytes T, lymphocytes B, monocytes; type: cell-based, humain; conditions: result in words; b210: peptides of different length compared, 0,1-10 µg/ml
[3] = tested on: lymphocytes T, monocytes; experiment: Proliferation after separate preincubation of purified T lymphocytes and monocytes with peptides or antibodies (synergy of inhibition); type: cell-based, humain; conditions: T lymphocytes preincubated with the labelled substance, monocytes preincubated with "T₄-12"; sub-inhibitory concentrations
Experimental: Les monocytes sont obtenus après adhérence des cellules mononucléées (10⁷ /ml) sur boîte de Pétri (Corning) pendant une heure à 37°C. Ces boîtes de Pétri ont été préalablement incubées à 4°C avec du SVF décomplémenté, durant la nuit. Après avoir récupéré les cellules non adhérentes, les cellules adhérentes sont dé-tachées avec un barreau caoutchouté (rubber policeman) et par un pipettage vigoureux. Après deux lavages, elles sont irradiées à 4000 rads (IBL 137, source CS-137, CEA).
Les monocytes restants sont séparés des cellules non adhérentes par un traitement à la L-méthylleucine ester (5.10⁶ /ml, 5 mM final, Sigma) 40 minutes à tempé-rature ambiante (18). La réaction est arrêtée par addition de sérum AB humain (10 % final et lavages à froid).
Les lymphocytes T et B sont séparés par la technique des rosettes E. Les cellules T étant capables de former des rosettes en présence de globules rouges de mouton sensibilisés à la neuraminidase, après une incubation d'une heure à 0°C. Les cellules formant rosettes (E⁺) seront séparées des cellules ne formant pas rosettes (E⁻ ou B) par sédimentation sur gradient Ficoll-Hypaque. Les globules rouges de mouton sont lysés par choc hypotonique.
d'incubation des populations lymphoïdes purifiées avec les peptides ou des anticorps monoclonaux spécifiques des molé-cules T₄ et HLA-DR ont été effectuées. […]

[4] = tested on: interactions entre les macrophages et les lymphocytes auxiliaires (lymphocytes T4) et entre les lymphocytes T4 et les lymphocytes B; experiment: In vitro cell interaction tests in the system of FISHER et al (influenza virus); type: cell-based; conditions: individually or in synergy tests

| Compound | inhibition de la prolifération spécifique du virus influenza des lymphocytes T [1] | inhibition de la production d'anticorps anti-influenza [2] | synergie d'inhibition de la prolifération [3] | capacité d'inhiber in vitro les interactions entre les macrophages et les lymphocytes T4 et entre les lymphocytes T4 et les lymphocytes B [4] |
| --- | --- | --- | --- | --- |
| LRFDSDL [DR-7, H₂N-LRFDSDL-OH] | intermédiaires | puis and intermédiaires | intermédiaire |  |
| CC(C)[C@H](N)C(=O)N[C@@H](CCCNC(=N)N)C(=O)N[C@@H](Cc1ccccc1)C(=O)N[C@@H](CC(=O)O)C(=O)N[C@@H](CO)C(=O)N[C@@H](CC(=O)O)C(=O)O [XIII, H₂N-VRFDSD-OH] |  |  |  | capables |
| LRFDSD [XIV, H₂N―――LRFDSD―――OH] |  |  |  | capables |

Source: EP0226513A1, “Peptides capable of inhibiting interactions between antigens and lymphocytes T4, products derived therefrom and their applications” (INSTITUT PASTEUR, priority 1985, dated 1987)
